In US11365188B2, “JAK inhibitors” (priority 2018, dated 2022):
pIC50: −log10 of the molar value.

Legend:
Format in all cases: biochemical
TYK2 = TYK2 (Homo sapiens, UniProt P29597); assay: TYK2 Assay (Caliper EZ Reader, fluoresceinated peptide); conditions: ATP 35.4 μM; TYK2 10 nM; 10 minutes at room temperature; read-out: TYK2 inhibition
Experimental: 384-well plates in the left foot butoxy measured progress. The final assay volume was 25 μL, 250 nL 100× compounds, 10 μL enzyme mix and 15 μL substrate mix (fluoresceinated peptide and ATP) in assay buffer (50 mM HEPES (pH 7.5), 10 mM MgCl2, 0.01% TritonX-100, 0.01% Brij35, 0.5 mM EGTA and 2 mM DTT) prepared as test compound. B mixing the TYK2 with substrates and test compounds to start the reaction. The reaction mixture was incubated for 10 minutes at room temperature, then added 30 μL stop buffer for each sample to terminate the reaction with 50 mM EDTA. After termination of the kinase reaction, the proportion of phosphorylated product was determined as a fraction of total peptide substrate using Caliper EZ Reader 1. Inhibition data were calculated by comparison with 100% of the reaction mixture without enzyme inhibition and vehicle-only reaction mixture billion % inhibition compared. The final concentration of reagents in the assays is: ATP, 35.4 μM; TYK2 fluorescent peptide (5-FAM-KKKKEEIYFFF-CONH2), 3 μM; TYK2, 10 nM; and DMSO, 1% Dose response curve were generated to determine the concentration required for IC50 of TYK2 activity.

JAK1 = JAK1 (Homo sapiens, UniProt P23458); assay: JAK Kinase Assay (JAK1, Caliper EZ Reader, fluoresceinated peptide); conditions: ATP 76.5 μM; JAK1 10 nM; 120 minutes at room temperature; read-out: JAK1 inhibition
Chain of JAK1 (P23458 whole entry, species assumed): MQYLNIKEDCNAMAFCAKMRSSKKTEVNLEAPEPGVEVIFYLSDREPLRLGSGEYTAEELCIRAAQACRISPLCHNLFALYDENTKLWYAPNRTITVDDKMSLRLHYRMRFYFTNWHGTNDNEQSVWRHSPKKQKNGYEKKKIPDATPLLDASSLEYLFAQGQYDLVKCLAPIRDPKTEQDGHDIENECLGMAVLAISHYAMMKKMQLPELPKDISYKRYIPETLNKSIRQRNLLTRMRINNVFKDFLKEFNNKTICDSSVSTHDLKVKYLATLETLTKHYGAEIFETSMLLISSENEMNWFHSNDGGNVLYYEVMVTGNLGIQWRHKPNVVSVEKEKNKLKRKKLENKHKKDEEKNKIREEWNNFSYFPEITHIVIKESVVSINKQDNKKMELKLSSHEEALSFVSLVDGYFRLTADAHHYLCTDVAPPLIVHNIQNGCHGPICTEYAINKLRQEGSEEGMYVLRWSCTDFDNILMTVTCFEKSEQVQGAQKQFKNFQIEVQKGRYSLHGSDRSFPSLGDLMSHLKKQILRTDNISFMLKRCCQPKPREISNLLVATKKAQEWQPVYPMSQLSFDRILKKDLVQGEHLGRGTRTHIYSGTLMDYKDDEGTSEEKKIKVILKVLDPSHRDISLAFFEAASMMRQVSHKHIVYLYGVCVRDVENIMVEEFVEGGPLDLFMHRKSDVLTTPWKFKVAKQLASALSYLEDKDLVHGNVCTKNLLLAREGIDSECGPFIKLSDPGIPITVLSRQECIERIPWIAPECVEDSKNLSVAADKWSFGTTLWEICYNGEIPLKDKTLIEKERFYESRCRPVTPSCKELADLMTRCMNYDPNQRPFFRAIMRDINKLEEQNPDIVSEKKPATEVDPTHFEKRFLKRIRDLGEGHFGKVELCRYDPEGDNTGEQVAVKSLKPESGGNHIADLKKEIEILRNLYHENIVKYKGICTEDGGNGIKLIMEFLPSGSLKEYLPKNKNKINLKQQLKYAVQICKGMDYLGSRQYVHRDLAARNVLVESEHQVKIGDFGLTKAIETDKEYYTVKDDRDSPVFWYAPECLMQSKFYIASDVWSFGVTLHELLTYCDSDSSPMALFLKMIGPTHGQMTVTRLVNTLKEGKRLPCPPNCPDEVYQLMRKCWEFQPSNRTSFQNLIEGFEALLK

JAK3 = biological target: T1, JAK3 (Homo sapiens, UniProt P52333); assay: JAK3 Assay (Caliper EZ Reader, fluoresceinated peptide); conditions: ATP 3.5 μM; JAK3 0.5 nM; 30 minutes at room temperature; read-out: JAK3 inhibition
T1 sequence (P52333 1-1124): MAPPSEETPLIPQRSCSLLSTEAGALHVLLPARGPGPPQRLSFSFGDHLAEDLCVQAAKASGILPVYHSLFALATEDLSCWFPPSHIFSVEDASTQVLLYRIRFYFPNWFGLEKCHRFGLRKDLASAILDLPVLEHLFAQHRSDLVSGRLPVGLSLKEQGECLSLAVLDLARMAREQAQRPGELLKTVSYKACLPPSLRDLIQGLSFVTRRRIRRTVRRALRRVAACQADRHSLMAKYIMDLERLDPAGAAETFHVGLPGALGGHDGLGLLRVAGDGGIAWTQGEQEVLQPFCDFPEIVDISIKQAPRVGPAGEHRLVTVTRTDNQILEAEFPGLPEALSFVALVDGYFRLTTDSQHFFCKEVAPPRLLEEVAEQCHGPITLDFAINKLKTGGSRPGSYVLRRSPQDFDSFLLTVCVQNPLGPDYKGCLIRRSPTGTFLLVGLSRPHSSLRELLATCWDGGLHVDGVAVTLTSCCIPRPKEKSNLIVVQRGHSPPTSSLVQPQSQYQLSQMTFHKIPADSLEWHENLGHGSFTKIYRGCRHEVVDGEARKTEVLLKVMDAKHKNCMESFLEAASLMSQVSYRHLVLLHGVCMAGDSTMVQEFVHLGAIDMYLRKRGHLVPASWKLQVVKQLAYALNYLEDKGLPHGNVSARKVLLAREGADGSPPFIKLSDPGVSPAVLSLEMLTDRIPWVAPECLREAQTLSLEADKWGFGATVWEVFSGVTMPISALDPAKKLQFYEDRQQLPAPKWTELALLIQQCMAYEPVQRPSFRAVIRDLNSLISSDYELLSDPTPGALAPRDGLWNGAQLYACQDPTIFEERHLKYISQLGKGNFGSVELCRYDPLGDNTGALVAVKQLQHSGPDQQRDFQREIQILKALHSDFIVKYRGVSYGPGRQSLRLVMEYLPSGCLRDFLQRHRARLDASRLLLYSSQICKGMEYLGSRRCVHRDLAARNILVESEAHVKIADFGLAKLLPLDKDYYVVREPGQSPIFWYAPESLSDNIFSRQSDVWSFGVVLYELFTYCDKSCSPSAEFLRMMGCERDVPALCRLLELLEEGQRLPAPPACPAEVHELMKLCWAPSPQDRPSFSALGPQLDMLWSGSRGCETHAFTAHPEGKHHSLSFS

JAK2 = JAK2 (Homo sapiens, UniProt O60674); assay: JAK2 Assay (Caliper EZ Reader, fluoresceinated peptide); conditions: ATP 11.4 μM; JAK2 0.25 nM; 15 minutes at room temperature; read-out: JAK2 inhibition
Chain of JAK2 (O60674 whole entry, species assumed): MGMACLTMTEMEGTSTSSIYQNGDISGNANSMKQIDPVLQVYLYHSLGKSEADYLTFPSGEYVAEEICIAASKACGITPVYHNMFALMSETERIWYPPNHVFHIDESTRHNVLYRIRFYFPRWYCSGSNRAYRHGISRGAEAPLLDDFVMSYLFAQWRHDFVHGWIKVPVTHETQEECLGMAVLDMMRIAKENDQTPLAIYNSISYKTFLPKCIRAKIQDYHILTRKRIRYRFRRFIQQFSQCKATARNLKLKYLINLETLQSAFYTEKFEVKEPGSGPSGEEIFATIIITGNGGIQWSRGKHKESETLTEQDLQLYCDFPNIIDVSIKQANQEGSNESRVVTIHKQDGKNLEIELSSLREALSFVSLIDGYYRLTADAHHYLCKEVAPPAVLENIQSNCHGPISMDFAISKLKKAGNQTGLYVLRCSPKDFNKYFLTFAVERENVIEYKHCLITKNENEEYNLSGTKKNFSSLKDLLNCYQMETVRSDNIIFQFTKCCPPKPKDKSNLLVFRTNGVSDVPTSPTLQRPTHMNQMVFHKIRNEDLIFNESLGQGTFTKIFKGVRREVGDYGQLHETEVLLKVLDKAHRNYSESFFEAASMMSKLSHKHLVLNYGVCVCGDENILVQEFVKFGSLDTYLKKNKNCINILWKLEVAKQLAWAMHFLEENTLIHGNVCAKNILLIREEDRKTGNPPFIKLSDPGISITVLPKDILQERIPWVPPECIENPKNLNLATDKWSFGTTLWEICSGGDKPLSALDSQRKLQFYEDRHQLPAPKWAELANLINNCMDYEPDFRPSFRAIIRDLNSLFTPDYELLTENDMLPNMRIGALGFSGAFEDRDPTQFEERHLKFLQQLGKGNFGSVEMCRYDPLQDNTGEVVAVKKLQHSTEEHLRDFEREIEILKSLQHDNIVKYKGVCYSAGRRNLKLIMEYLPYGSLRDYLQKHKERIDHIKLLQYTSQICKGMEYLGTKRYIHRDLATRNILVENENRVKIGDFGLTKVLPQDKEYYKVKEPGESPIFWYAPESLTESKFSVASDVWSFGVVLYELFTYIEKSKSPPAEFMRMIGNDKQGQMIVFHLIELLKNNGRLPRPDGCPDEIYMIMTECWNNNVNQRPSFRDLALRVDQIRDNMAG

Chain of TYK2 (P29597 whole entry, species assumed): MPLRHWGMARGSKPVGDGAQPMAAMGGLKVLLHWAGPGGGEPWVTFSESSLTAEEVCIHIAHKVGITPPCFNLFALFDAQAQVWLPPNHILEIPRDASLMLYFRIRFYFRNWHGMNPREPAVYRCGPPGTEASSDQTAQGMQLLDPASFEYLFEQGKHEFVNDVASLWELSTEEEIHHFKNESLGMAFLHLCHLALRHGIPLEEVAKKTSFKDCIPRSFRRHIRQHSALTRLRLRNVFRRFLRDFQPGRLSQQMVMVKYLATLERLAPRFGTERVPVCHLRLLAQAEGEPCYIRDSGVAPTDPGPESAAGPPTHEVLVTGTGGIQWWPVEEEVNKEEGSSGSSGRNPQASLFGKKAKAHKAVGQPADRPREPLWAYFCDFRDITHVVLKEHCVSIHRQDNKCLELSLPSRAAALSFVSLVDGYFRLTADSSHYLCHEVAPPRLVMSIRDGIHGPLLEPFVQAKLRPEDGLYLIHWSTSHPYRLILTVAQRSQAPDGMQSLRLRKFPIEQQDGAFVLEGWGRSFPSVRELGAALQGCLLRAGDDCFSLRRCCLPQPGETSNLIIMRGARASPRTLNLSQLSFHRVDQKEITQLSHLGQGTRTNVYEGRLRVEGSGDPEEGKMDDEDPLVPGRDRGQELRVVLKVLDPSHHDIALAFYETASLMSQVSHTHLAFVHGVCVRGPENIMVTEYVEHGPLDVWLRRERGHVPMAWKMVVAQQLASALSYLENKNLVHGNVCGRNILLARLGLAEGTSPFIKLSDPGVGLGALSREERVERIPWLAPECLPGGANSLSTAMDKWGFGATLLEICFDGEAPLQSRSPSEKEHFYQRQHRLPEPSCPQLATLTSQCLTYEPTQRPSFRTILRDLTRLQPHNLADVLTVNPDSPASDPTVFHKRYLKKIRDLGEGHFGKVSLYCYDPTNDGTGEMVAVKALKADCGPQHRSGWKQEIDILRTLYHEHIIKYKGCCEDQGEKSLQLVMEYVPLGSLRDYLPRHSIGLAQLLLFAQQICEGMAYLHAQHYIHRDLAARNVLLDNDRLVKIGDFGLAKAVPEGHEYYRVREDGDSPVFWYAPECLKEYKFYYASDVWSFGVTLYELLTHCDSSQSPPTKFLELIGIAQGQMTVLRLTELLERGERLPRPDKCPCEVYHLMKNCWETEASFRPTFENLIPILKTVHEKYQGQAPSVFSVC

Compound: CN(c1ncnc2[nH]ccc12)C1CC2(C1)CN(C(=O)c1ccc(Cl)cc1)C2 [Compound 25, (4-chlorophenyl)(6-(methyl(7H-pyrrolo[2,3-d]pyrimidin-4-yl)amino)-2-azaspiro[3.3]heptan-2-yl)methanone]
- pIC50 (TYK2): ≤ 5.00
- pIC50 (JAK1): 7.00 to 8.00
- pIC50 (JAK3): ≤ 5.00
- pIC50 (JAK2): 5.00 to 6.00
